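In this assay, cells in 96-well plates receive the compound at five concentrations for 48 hours. Endpoints are linearly interpolated between the surrounding concentrations. GI50: concentration for 50% inhibition of growth.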 The source made the active and inactive calls. No stated cut-off is given here; in the data, active = GI50 up to about 1.1 µM and inactive = higher.
Key:
Test in all cases: NCI-60 cell line screen, 48 h
HL-60 = test system: HL-60
SF-295 = test system: SF-295
OVCAR-3 = test system: OVCAR-3
NCI-H522 = test system: NCI-H522
CAKI-1 = test system: CAKI-1
OVCAR-4 = test system: OVCAR-4
SW-620 = test system: SW-620
CCRF-CEM = test system: CCRF-CEM
EKVX = test system: EKVX
NCI/ADR-RES = test system: NCI/ADR-RES
UACC-62 = test system: UACC-62
SK-MEL-28 = test system: SK-MEL-28
Hs-578T = test system: Hs-578T
RXF 393 = test system: RXF 393
HT-29 = test system: HT-29
A549 = test system: A549
IGROV-1 = test system: IGROV-1
HOP-62 = test system: HOP-62
UACC-257 = test system: UACC-257
HCT-15 = test system: HCT-15
DU-145 = test system: DU-145
MDA-N = test system: MDA-N
NCI-H460 = test system: NCI-H460
NCI-H226 = test system: NCI-H226
OVCAR-5 = test system: OVCAR-5
MDA-MB-435 = test system: MDA-MB-435
KM12 = test system: KM12
K562 = test system: K562
NCI-H23 = test system: NCI-H23
MOLT-4 = test system: MOLT-4
PC-3 = test system: PC-3
RPMI-8226 = test system: RPMI-8226
M14 = test system: M14
T47D = test system: T47D
U-251 = test system: U-251
HCC 2998 = test system: HCC 2998
SF-268 = test system: SF-268
HCT-116 = test system: HCT-116
HOP-92 = test system: HOP-92
BT-549 = test system: BT-549
A498 = test system: A498
LOX IMVI = test system: LOX IMVI
SK-OV-3 = test system: SK-OV-3
786-0 = test system: 786-0
SN12C = test system: SN12C
OVCAR-8 = test system: OVCAR-8
MDA-MB-231 = test system: MDA-MB-231
SK-MEL-5 = test system: SK-MEL-5
SNB-75 = test system: SNB-75
SK-MEL-2 = test system: SK-MEL-2
SR = test system: SR
SF-539 = test system: SF-539
SNB-19 = test system: SNB-19
COLO 205 = test system: COLO 205
UO-31 = test system: UO-31
MCF7 = test system: MCF7
ACHN = test system: ACHN
Malme-3M = test system: Malme-3M
TK-10 = test system: TK-10

`C=CCN1C(=O)/C(=C/c2ccc(C)cc2)N=C1SC/C=C/C` was tested, and the GI50 (HL-60) was 15.8 µM (inactive), the GI50 (SF-295) was 36.8 µM (inactive) and the GI50 (OVCAR-3) was 40.8 µM (inactive). For the same molecule, the GI50 (NCI-H522) was 29 µM (inactive), the GI50 (CAKI-1) was > 100 µM (inactive) and the GI50 (OVCAR-4) was 41.9 µM (inactive). The GI50 (SW-620) was 39.4 µM (inactive), the GI50 (CCRF-CEM) was 26.7 µM (inactive) and the GI50 (EKVX) was 27 µM (inactive). For the same molecule, the GI50 (NCI/ADR-RES) was 47.3 µM (inactive), the GI50 (UACC-62) was 39.5 µM (inactive) and the GI50 (SK-MEL-28) was 50.6 µM (inactive). The GI50 (Hs-578T) was 21.8 µM (inactive), the GI50 (RXF 393) was 11.5 µM (inactive) and the GI50 (HT-29) was 29.1 µM (inactive). For the same molecule, the GI50 (A549) was 21 µM (inactive), the GI50 (IGROV-1) was 51.6 µM (inactive) and the GI50 (HOP-62) was > 100 µM (inactive). For the same molecule, the GI50 (UACC-257) was 32.7 µM (inactive), the GI50 (HCT-15) was 33.4 µM and the GI50 (DU-145) was 55.3 µM (inactive). For the same molecule, the GI50 (MDA-N) was 22.8 µM (inactive), the GI50 (NCI-H460) was 40.3 µM (inactive) and the GI50 (NCI-H226) was > 100 µM (inactive). For the same molecule, the GI50 (OVCAR-5) was 43.6 µM (inactive), the GI50 (MDA-MB-435) was 34.4 µM (inactive) and the GI50 (KM12) was 27.8 µM (inactive). For the same molecule, the GI50 (K562) was 25.9 µM (inactive), the GI50 (NCI-H23) was 31.1 µM (inactive) and the GI50 (MOLT-4) was 14.8 µM (inactive). The GI50 (PC-3) was 33 µM (inactive), the GI50 (RPMI-8226) was 14.5 µM (inactive) and the GI50 (M14) was 45.6 µM (inactive). For the same molecule, the GI50 (T47D) was 16.3 µM (inactive), the GI50 (U-251) was 27.2 µM (inactive) and the GI50 (HCC 2998) was 41.7 µM (inactive). The GI50 (SF-268) was 33.2 µM (inactive), the GI50 (HCT-116) was 18.8 µM (inactive) and the GI50 (HOP-92) was 22.6 µM (inactive). The GI50 (BT-549) was 30.4 µM (inactive), the GI50 (A498) was 24.3 µM (inactive) and the GI50 (LOX IMVI) was 19.6 µM (inactive). The GI50 (SK-OV-3) was > 100 µM (inactive), the GI50 (786-0) was 29.9 µM (inactive) and the GI50 (SN12C) was 28.1 µM (inactive). The GI50 (OVCAR-8) was 30.1 µM (inactive), the GI50 (MDA-MB-231) was 51.5 µM (inactive) and the GI50 (SK-MEL-5) was 22.7 µM (inactive). For the same molecule, the GI50 (SNB-75) was 17.8 µM (inactive), the GI50 (SK-MEL-2) was 24.8 µM (inactive) and the GI50 (SR) was 17.2 µM (inactive). The GI50 (SF-539) was 77.3 µM (inactive), the GI50 (SNB-19) was 15.5 µM (inactive) and the GI50 (COLO 205) was 36.5 µM (inactive). The GI50 (UO-31) was 47.3 µM (inactive), the GI50 (MCF7) was 29.4 µM (inactive) and the GI50 (ACHN) was 40.2 µM (inactive). For the same molecule, the GI50 (Malme-3M) was 32.1 µM (inactive) and the GI50 (TK-10) was > 100 µM (inactive).

`CN(C)c1ccc(C=C2C(=O)NC(=S)NC2=O)c2ccccc12` was tested, and the GI50 (HL-60) was 33.7 µM (inactive), the GI50 (SF-295) was > 100 µM (inactive) and the GI50 (OVCAR-3) was 50.9 µM (inactive). The GI50 (NCI-H522) was 18.5 µM (inactive), the GI50 (CAKI-1) was 98.9 µM (inactive) and the GI50 (OVCAR-4) was > 100 µM (inactive). For the same molecule, the GI50 (SW-620) was 46.6 µM (inactive), the GI50 (CCRF-CEM) was 38.6 µM (inactive) and the GI50 (EKVX) was > 100 µM (inactive). For the same molecule, the GI50 (NCI/ADR-RES) was > 100 µM (inactive), the GI50 (UACC-62) was > 100 µM (inactive) and the GI50 (SK-MEL-28) was 77.4 µM (inactive). The GI50 (Hs-578T) was 26.5 µM (inactive), the GI50 (RXF 393) was 26.3 µM (inactive) and the GI50 (HT-29) was > 100 µM (inactive). For the same molecule, the GI50 (A549) was > 100 µM (inactive), the GI50 (IGROV-1) was 36.1 µM (inactive) and the GI50 (HOP-62) was > 100 µM (inactive). The GI50 (UACC-257) was > 100 µM (inactive), the GI50 (HCT-15) was 41.7 µM and the GI50 (DU-145) was > 100 µM (inactive). The GI50 (MDA-N) was 42.7 µM (inactive), the GI50 (NCI-H460) was > 100 µM (inactive) and the GI50 (NCI-H226) was > 100 µM (inactive). The GI50 (OVCAR-5) was > 100 µM (inactive), the GI50 (MDA-MB-435) was 38.9 µM (inactive) and the GI50 (KM12) was > 100 µM (inactive). The GI50 (K562) was 40.9 µM (inactive), the GI50 (NCI-H23) was 71.9 µM (inactive) and the GI50 (MOLT-4) was 29.6 µM (inactive). The GI50 (PC-3) was > 100 µM (inactive), the GI50 (RPMI-8226) was 39.4 µM (inactive) and the GI50 (M14) was > 100 µM (inactive). The GI50 (T47D) was > 100 µM (inactive), the GI50 (U-251) was 34.3 µM (inactive) and the GI50 (HCC 2998) was > 100 µM (inactive). The GI50 (SF-268) was 29 µM (inactive), the GI50 (HCT-116) was > 100 µM (inactive) and the GI50 (HOP-92) was 25.1 µM (inactive). The GI50 (BT-549) was 61 µM (inactive), the GI50 (A498) was 53.7 µM (inactive) and the GI50 (LOX IMVI) was 26.9 µM (inactive). The GI50 (SK-OV-3) was > 100 µM (inactive), the GI50 (786-0) was 39.8 µM (inactive) and the GI50 (SN12C) was 68.4 µM (inactive). The GI50 (OVCAR-8) was 27 µM (inactive), the GI50 (MDA-MB-231) was > 100 µM (inactive) and the GI50 (SK-MEL-5) was > 100 µM (inactive). The GI50 (SNB-75) was 30.1 µM (inactive), the GI50 (SK-MEL-2) was 62.8 µM (inactive) and the GI50 (SR) was 33.5 µM (inactive). The GI50 (SF-539) was 36 µM (inactive), the GI50 (SNB-19) was 61.2 µM (inactive) and the GI50 (COLO 205) was > 100 µM (inactive). For the same molecule, the GI50 (UO-31) was 60.4 µM (inactive), the GI50 (MCF7) was 67.6 µM (inactive) and the GI50 (ACHN) was > 100 µM (inactive). For the same molecule, the GI50 (Malme-3M) was 49.9 µM (inactive) and the GI50 (TK-10) was > 100 µM (inactive).

`OC1C2CCCCN2C[C@@H](O)[C@H]1O` (some centres not stated) was tested, and the GI50 (HL-60) was > 100 µM (inactive), the GI50 (SF-295) was > 100 µM (inactive) and the GI50 (OVCAR-3) was > 100 µM (inactive). The GI50 (NCI-H522) was 76.6 µM (inactive), the GI50 (CAKI-1) was > 100 µM (inactive) and the GI50 (OVCAR-4) was > 100 µM (inactive). For the same molecule, the GI50 (SW-620) was > 100 µM (inactive), the GI50 (CCRF-CEM) was > 100 µM (inactive) and the GI50 (EKVX) was > 100 µM (inactive). The GI50 (NCI/ADR-RES) was > 100 µM (inactive), the GI50 (UACC-62) was > 100 µM (inactive) and the GI50 (SK-MEL-28) was > 100 µM (inactive). For the same molecule, the GI50 (Hs-578T) was > 100 µM (inactive), the GI50 (RXF 393) was > 100 µM (inactive) and the GI50 (HT-29) was > 100 µM (inactive). For the same molecule, the GI50 (A549) was > 100 µM (inactive), the GI50 (IGROV-1) was > 100 µM (inactive) and the GI50 (HOP-62) was > 100 µM (inactive). The GI50 (UACC-257) was > 100 µM (inactive), the GI50 (HCT-15) was greater than 100 µM and the GI50 (DU-145) was > 100 µM (inactive). The GI50 (MDA-N) was > 100 µM (inactive), the GI50 (NCI-H460) was > 100 µM (inactive) and the GI50 (NCI-H226) was > 100 µM (inactive). The GI50 (OVCAR-5) was > 100 µM (inactive), the GI50 (MDA-MB-435) was > 100 µM (inactive) and the GI50 (KM12) was > 100 µM (inactive). For the same molecule, the GI50 (K562) was > 100 µM (inactive), the GI50 (NCI-H23) was > 100 µM (inactive) and the GI50 (MOLT-4) was > 100 µM (inactive). The GI50 (PC-3) was > 100 µM (inactive), the GI50 (RPMI-8226) was > 100 µM (inactive) and the GI50 (M14) was > 100 µM (inactive). The GI50 (T47D) was > 100 µM (inactive), the GI50 (U-251) was > 100 µM (inactive) and the GI50 (HCC 2998) was > 100 µM (inactive). For the same molecule, the GI50 (SF-268) was > 100 µM (inactive), the GI50 (HCT-116) was > 100 µM (inactive) and the GI50 (HOP-92) was > 100 µM (inactive). The GI50 (BT-549) was > 100 µM (inactive), the GI50 (A498) was > 100 µM (inactive) and the GI50 (LOX IMVI) was > 100 µM (inactive). For the same molecule, the GI50 (SK-OV-3) was > 100 µM (inactive), the GI50 (786-0) was > 100 µM (inactive) and the GI50 (SN12C) was > 100 µM (inactive). For the same molecule, the GI50 (OVCAR-8) was > 100 µM (inactive), the GI50 (MDA-MB-231) was > 100 µM (inactive) and the GI50 (SK-MEL-5) was > 100 µM (inactive). For the same molecule, the GI50 (SNB-75) was > 100 µM (inactive), the GI50 (SK-MEL-2) was > 100 µM (inactive) and the GI50 (SR) was > 100 µM (inactive). For the same molecule, the GI50 (SF-539) was > 100 µM (inactive), the GI50 (SNB-19) was > 100 µM (inactive) and the GI50 (COLO 205) was > 100 µM (inactive). The GI50 (UO-31) was > 100 µM (inactive), the GI50 (MCF7) was > 100 µM (inactive) and the GI50 (ACHN) was > 100 µM (inactive). For the same molecule, the GI50 (Malme-3M) was > 100 µM (inactive) and the GI50 (TK-10) was > 100 µM (inactive).

Reference: ChEMBL document CHEMBL1201862, “PubChem BioAssay data set” (2004)
